Numbering of substitutions follows the chain as printed.
Legend:
[1] = HDL particle size profiles by Gradient Gel Electrophoresis (GGE) of pooled hamster plasma; format: in vivo; conditions: hamsters, 20 mg/kg/day, 4 days
Method: Hamsters were treated with either vehicle or Compound A as described above (20 mg/kg/day, 4 days, n=6). Plasma samples were collected and pooled for each group. An aliquot of pooled plasma was analyzed using GGE as described in Blanche et al. (1981) BBA 665: 408-419.

[2] = FPLC elution profiles of pooled hamster plasma (cholesterol, triglyceride); format: in vivo; conditions: hamsters, IP 20 mg/kg/day, 4 days, FIG. 7
Method: Hamsters (n=6) were treated with either vehicle (control), or Compound A via IP administration (20 mg/kg/day, 4 days). Plasma samples were pooled within each treatment group, and separated by FPLC using two serially connected Superose 6 columns (Pharmacia Biotech Inc.). Cholesterol (panel A) and triglyceride (panel B) levels were determined in 0.5 ml fractions.

[3] = target: T1, LCAT C31A mutant (Homo sapiens, UniProt P04180, C55A); test: Activation of recombinant LCAT C31A mutant; format: biochemical; conditions: recombinant protein
T1 construct: full-length human LCAT cDNA was isolated from normal human liver cDNA library; FLAG (C); His (C); made in house; host or cells: CHO cells, secreted into serum-free medium
T1 sequence (P04180 25-440 C55A): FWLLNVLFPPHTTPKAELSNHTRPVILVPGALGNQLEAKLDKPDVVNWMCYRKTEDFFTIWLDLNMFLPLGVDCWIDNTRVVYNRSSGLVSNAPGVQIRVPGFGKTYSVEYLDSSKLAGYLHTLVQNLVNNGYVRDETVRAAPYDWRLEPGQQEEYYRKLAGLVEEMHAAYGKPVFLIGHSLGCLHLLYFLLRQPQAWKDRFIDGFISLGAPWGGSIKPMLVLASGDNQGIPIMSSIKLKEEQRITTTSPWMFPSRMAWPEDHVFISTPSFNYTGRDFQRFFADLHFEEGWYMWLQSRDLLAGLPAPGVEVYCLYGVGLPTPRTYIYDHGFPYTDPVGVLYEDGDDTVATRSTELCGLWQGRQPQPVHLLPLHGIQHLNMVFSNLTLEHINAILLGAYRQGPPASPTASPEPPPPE
Text: (§1) For measuring compound activity using apoAI-liposome assay format, full-length human LCAT cDNA was isolated from normal human liver cDNA library (BioChain, Hayward, Calif.) with standard protocol and cloned into a pCMV-Flag vector (See Example 18). Recombinant LCAT was expressed in CHO cells and the enzyme secreted from stably transfected cells was harvested in serum-free culture medium. Recombinant LCAT identity was confirmed with anti-human LCAT and anti-Flag antibodies. The activity of recombinant LCAT enzyme was determined using apoAI-liposome substrates prepared by the standard cholate-dialysis procedure (Chen et al. (1982) J. Lipid Res. 23: 680-691. The initial mixture contained egg PC/^3H-unesterfied cholesterol/human apoAI (molar ratio of 250:12.5:0.8). After dialysis the proteoliposomes were incorporated with recombinant LCAT protein. LCAT activity was determined by measuring the conversion of radiolabeled cholesterol to cholesteryl ester and expressed in nmol CE/mL per hour.
(§2) Results summarized in FIG. 2(B) illustrate the mechanism of action of compounds of the invention on LCAT enzyme. Two loss-of-function LCAT mutants, H377A and S181A were generated, in which the critical catalytic triad of the enzyme was destroyed as described in Francone et al. (1991) Biochemistry 30: 10074-77; Peelman et al. (1998) Protein Sci. 7: 587-599; and Peelman et al. (2000) Curr. Opin. Lipidol. […]

[4] = test system: LCAT; test: Plasma LCAT activity assay in LCAT-deficient (lcat -/-) plasma samples; format: biochemical; conditions: lcat -/- mutant mouse plasma, in the presence or absence of compound
Method: Activity of the modified LCAT of the invention and activities of compounds of the invention were determined by measuring change of the rate of conversion of ^3H-labeled cholesterol to cholesteryl ester (CE). In the plasma LCAT activity assay, human plasma samples were equilibrated with a trace amount of radiolabeled cholesterol at 4° C. and the rate of cholesterol esterification was measured by TLC analysis after incubation at 37° C. (Dobiasova, supra). EC50 represents a compound concentration achieving 50% of maximal activation of LCAT-mediated cholesterol esterification. Results presented in FIG. 2(A) confirm activity and specificity of the compounds of the invention on LCAT enzyme. This experiment studied the effect of Compound A in LCAT-deficient plasma samples obtained from lcat mutant mice. Ng et al. (1997) J. Biol. Chem. 272:1 5777-81.

[5] = target: T2, LCAT mutant H377A (Homo sapiens, UniProt P04180, H401A); test: Activity of loss-of-function LCAT mutant H377A with or without compound; format: biochemical; conditions: nonfunctional enzyme
T2 construct: full-length human LCAT cDNA was isolated from normal human liver cDNA library; FLAG (C); His (C); made in house; host or cells: CHO cells, secreted into serum-free medium
T2 sequence (P04180 25-440 H401A): T1 sequence (P04180 25-440 C55A) with A31C, H377A
Text: as §1, §2

[6] = target: T3, LCAT C184A mutant (Homo sapiens, UniProt P04180, C208A); test: Activation of recombinant LCAT C184A mutant; format: biochemical; conditions: recombinant protein
T3 construct: full-length human LCAT cDNA was isolated from normal human liver cDNA library; FLAG (C); His (C); made in house; host or cells: CHO cells, secreted into serum-free medium
T3 sequence (P04180 25-440 C208A): T1 sequence (P04180 25-440 C55A) with A31C, C184A
Text: as §1, §2

[7] = Plasma HDL cholesterol in CD1 mice after IP dosing; format: in vivo; conditions: IP 20 mg/kg, one dose per day, 4 days, FIG. 4
Method: (§3) Rodents used for assessing the in vivo effects of the compounds of the invention include BALB/c mice, CD1 mice, and Syrian hamsters of wild type fed with normal chew. These animals were treated with either vehicle or Compound A (3-(5-ethylthio)-1,3,4-thiadiazol-2-ylthio)pyrazine-2-carbonitrile) by IP injection. At time points (see Figures) after compound administration, blood samples were collected, plasma was immediately separated, and plasma levels of lipids, lipoprotein and LCAT activity were determined.
CD1 male three month old mice were treated with either vehicle (control) or with Compound A by IP injection (20 mg/kg, one dose per day, 4 days, n=8). Plasma samples were collected and HDL cholesterol concentrations were determined standard reagents and assay protocol using clinical analyzer (Infinity).

[8] = target: T4, LCAT mutant S181A (Homo sapiens, UniProt P04180, S205A); test: Activity of loss-of-function LCAT mutant S181A with or without compound; format: biochemical; conditions: nonfunctional enzyme
T4 construct: full-length human LCAT cDNA was isolated from normal human liver cDNA library; FLAG (C); His (C); made in house; host or cells: CHO cells, secreted into serum-free medium
T4 sequence (P04180 25-440 S205A): T1 sequence (P04180 25-440 C55A) with A31C, S181A
Text: as §1, §2

[9] = Plasma TC, HDL and LpB cholesterol in Syrian hamsters after IP dosing; format: in vivo; conditions: IP 20 mg/kg, one dose per day, 4 days, FIG. 6
Method: as §3
Hamsters (Syrian, male, 12 weeks old, n=6 per group) were treated with either vehicle (control) or Compound A via IP administration (20 mg/kg, one dose per day, 4 days). Plasma samples were collected and concentrations of total cholesterol (TC), panel B, and HDL cholesterol (panel A) were measured. LpB cholesterol contents were obtained by subtracting HDL from TC (panel C).

[10] = target: T5, LCAT enzyme (Mus musculus, UniProt P16301); test: Plasma LCAT activity after IP dosing of BALB/c mice; format: in vivo; conditions: male, DEPG vehicle, FIG. 3
T5 construct: from tissue; host or cells: plasma of BALB/c mice dosed IP
T5 sequence (P16301 25-438): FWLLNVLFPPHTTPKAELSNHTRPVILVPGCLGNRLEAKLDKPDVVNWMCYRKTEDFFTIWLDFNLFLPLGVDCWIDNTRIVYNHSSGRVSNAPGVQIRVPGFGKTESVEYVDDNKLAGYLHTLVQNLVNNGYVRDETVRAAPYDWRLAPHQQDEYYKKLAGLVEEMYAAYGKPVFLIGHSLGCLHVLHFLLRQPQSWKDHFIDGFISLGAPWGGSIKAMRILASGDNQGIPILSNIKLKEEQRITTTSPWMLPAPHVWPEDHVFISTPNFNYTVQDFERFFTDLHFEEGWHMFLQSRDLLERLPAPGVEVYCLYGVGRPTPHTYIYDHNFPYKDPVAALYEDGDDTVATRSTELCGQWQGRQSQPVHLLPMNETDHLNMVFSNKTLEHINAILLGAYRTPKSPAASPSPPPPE
Method: Activity of the modified LCAT of the invention and activities of compounds of the invention were determined by measuring change of the rate of conversion of ^3H-labeled cholesterol to cholesteryl ester (CE). In the plasma LCAT activity assay, human plasma samples were equilibrated with a trace amount of radiolabeled cholesterol at 4° C. and the rate of cholesterol esterification was measured by TLC analysis after incubation at 37° C. (Dobiasova, supra). EC50 represents a compound concentration achieving 50% of maximal activation of LCAT-mediated cholesterol esterification.
as §3
Briefly, BALB/c mice (male, 7 weeks old) were treated with either vehicle or Compound A by intra-peritoneal (IP) in the indicated doses. Animals were fed normal chow diet. […]

CCSc1nnc(Sc2nccnc2C#N)s1 [Compound A]
HDL particle size (GGE) [1]: increase of HDL particle size | HDL particle size profile, HDL subclass 2a ([1]; GGE): 39 | HDL particle size profile, HDL subclass 2b ([1]; GGE): 56 | HDL particle size profile, HDL subclass 3a ([1]; GGE): 3 | HDL particle size profile, HDL subclass 3b ([1]; GGE): 1 | HDL particle size profile, HDL subclass 3c ([1]; GGE): 1 | HDL particle size (FPLC) [2]: increases HDL particle size | HDL-Ch levels (FPLC) [2]: increases HDL-Ch levels | TG levels in the VLDL fraction (FPLC) [2]: decrease TG levels in the VLDL fraction | Response of C31A mutant to compound (LCAT activation) [3]: failed to be activated | LCAT activity in LCAT-deficient plasma [4]: No LCAT activity was detected | LCAT activity of H377A mutant [5]: No activity was observed | Response of C184A mutant to compound (LCAT activation) [6]: able to respond to the treatment in a dose dependent manner comparable to that of the wild type enzyme | HDL cholesterol levels [7]: increases HDL cholesterol levels | LCAT activity of S181A mutant [8]: No activity was observed | HDL levels [9]: increases HDL levels | apoB-containing lipoprotein (LpB cholesterol = TC minus HDL) [9]: decreases apoB-containing lipoprotein | Plasma LCAT enzyme activity [10]: increase LCAT enzyme activity in a dose dependent manner
